Measurements published in US11319321B2, “[1,2,4]triazolo[1,5-a]pyrimidine compounds as PDE2 inhibitors” (Janssen Pharmaceutica NV, priority 2016, dated 2022).
Read-outs that look alike come from different tables or passages of the source.

How the values were obtained:
[1] = target: T1, Human recombinant PDE2A (hPDE2A) (Homo sapiens, UniProt O00408); assay: In vitro assay PDE2A (SPA, 3H-cGMP); assay type: biochemical
T1 construct: made in house; host or cells: Sf9 insect cells (baculovirus)
Description: Human recombinant PDE2A (hPDE2A) was expressed in Sf9 cells using a recombinant rPDE10A baculovirus construct. Cells were harvested after 48 h of infection and the hPDE2A protein was purified by metal chelate chromatography on Ni-sepharose 6FF. Tested compounds were dissolved and diluted in 100% DMSO to a concentration 100 fold of the final concentration in the assay. Compound dilutions (0.4 μl) were added in 384 well plates to 20 μl of incubation buffer (50 mM Tris pH 7.8, 8.3 mM MgCl2, 1.7 mM EGTA). 10 μl of hPDE2A enzyme in incubation buffer was added and the reaction was started by addition of 10 μl substrate to a final concentration of 10 μM cGMP and 0.01 μCi ^3H-cGMP. The reaction was incubated for 45 minutes at room temperature. […] After sedimentation of the beads during 30 minutes the radioactivity was measured in a Perkin Elmer Topcount scintillation counter and results were expressed as cpm. For blanc values the enzyme was omitted from the reaction and replaced by incubation buffer. Control values were obtained by addition of a final concentration of 1% DMSO instead of compound.

hPDE3B = assay: In vitro assay PDE3 (SPA, 3H-cAMP); assay type: biochemical, human; settings: 0.4 μM cAMP substrate; for hPDE3B Emax: in % (unit assumed)
PDE2A = target: T2, PDE2A (Rattus norvegicus, UniProt Q01062); assay: PDE2 occupancy by ex-vivo autoradiography with [3H]B-17a; assay type: in vivo; settings: read-out: PDE2 occupancy at 10 mg/kg
T2 construct: Twenty μm-thick striatal sections were cut; from tissue; host or cells: rat brain, striatal sections
T2 sequence (Q01062 1-928): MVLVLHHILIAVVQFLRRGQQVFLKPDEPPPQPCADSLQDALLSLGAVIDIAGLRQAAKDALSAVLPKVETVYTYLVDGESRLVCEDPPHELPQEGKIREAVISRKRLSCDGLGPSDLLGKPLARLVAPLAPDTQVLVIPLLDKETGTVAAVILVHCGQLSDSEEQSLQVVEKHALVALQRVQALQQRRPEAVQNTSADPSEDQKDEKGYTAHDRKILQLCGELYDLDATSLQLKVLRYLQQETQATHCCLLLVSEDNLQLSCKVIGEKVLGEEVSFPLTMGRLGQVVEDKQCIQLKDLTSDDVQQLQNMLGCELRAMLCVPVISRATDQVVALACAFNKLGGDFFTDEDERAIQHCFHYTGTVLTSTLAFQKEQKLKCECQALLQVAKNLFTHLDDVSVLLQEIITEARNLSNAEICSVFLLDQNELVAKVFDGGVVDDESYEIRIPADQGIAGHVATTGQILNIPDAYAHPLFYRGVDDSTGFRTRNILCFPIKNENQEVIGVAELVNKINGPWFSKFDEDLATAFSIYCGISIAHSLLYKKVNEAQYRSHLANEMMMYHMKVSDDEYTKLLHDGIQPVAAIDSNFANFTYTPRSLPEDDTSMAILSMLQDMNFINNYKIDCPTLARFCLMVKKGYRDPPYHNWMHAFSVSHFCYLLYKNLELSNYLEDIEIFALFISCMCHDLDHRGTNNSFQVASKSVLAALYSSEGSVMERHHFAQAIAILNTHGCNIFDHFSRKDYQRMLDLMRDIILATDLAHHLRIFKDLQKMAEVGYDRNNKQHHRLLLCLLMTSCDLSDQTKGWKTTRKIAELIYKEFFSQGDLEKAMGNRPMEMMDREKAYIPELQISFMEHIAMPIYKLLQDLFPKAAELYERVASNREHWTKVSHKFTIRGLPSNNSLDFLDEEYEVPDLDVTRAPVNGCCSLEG
Description: Brains were immediately removed from the skull and rapidly frozen in dry-ice cooled 2-methylbutane (−40° C.).
After thawing, sections were dried under a cold stream of air and incubated for one minute with 30 nM [^3H]B-17a in Tris-HCl (50 mM, pH7.4) containing 0.3% BSA. Brain sections from drug-treated and vehicle-treated animals were incubated in parallel. […] After incubation, the excess of [^3H]B-17a was washed off in ice-cold buffer 2 times 10 minutes, followed by a quick dip in distilled water. The sections were then dried under a stream of cold air.
Brain sections were loaded in a […] (Biospace, Paris) for 4 h and radioactivity emerging from delineated brain area was quantified using the Beta vision program (Biospace, Paris). Specific binding was determined as the difference between total binding in the striatum and non-specific binding in the cerebellum. Percentage receptor occupancy of the drug administered to the animal corresponded to 100% minus the percentage receptor labeled in the treated animal. For the determination of ED50-values, the percentage of receptor occupancy was plotted against dose and the sigmoidal log dose-effect curve of best fit was calculated by non-linear regression analysis, using the GraphPad Prism program.

hPDE10A2 = hPDE10A2 (Homo sapiens, UniProt Q9Y233); assay: biochemical; settings: 60 nM cAMP substrate; for IC50: read-out: hPDE10A2 or rPDE10A2 pIC50 (converted); for Emax: read-out: hPDE10A2 or rPDE10A2 Emax, human clone
Sequence of hPDE10A2 (Q9Y233 267-1055): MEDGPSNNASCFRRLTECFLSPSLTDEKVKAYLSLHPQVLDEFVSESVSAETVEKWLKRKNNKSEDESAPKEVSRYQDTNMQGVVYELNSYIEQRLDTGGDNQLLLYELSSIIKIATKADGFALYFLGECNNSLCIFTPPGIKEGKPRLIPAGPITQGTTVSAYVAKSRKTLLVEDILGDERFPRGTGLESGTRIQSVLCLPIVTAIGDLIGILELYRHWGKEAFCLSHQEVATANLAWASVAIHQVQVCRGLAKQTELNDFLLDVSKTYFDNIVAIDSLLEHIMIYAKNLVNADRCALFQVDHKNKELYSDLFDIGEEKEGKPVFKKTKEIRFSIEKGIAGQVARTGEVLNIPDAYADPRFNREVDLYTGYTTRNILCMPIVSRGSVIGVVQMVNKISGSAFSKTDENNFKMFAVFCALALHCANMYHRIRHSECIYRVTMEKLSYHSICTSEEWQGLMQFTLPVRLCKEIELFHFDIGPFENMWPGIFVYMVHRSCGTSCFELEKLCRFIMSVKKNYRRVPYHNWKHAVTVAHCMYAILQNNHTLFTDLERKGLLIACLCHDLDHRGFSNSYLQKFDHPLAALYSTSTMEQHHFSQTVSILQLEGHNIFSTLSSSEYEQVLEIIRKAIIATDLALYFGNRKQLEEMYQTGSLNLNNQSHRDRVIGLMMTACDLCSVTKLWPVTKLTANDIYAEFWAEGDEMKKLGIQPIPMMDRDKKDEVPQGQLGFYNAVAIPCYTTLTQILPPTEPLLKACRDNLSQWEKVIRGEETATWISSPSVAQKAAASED
Description: (§1) Rat recombinant PDE10A (rPDE10A2) was expressed in Sf9 cells using a recombinant rPDE10A baculovirus construct. Cells were harvested after 48 h of infection and the rPDE10A protein was purified by metal chelate chromatography on Ni-sepharose 6FF. Tested compounds were dissolved and diluted in 100% DMSO to a concentration 100 fold of the final concentration in the assay. Human recombinant PDE10A ([…]) was expressed in Sf9 cells using a recombinant hPDE10A baculovirus that was made and amplified in house. Cells were harvested after 72 h of infection and the hPDE10A protein was purified by metal chelate chromatography on Ni-sepharose. Compound dilutions (0.4 μl) were added in 384 well plates to 20 μl of incubation buffer (50 mM Tris pH 7.8, 8.3 mM MgCl2, 1.7 mM EGTA). 10 μl of rPDE10A or hPDE10A enzyme in incubation buffer was added and the reaction was started by addition of 10 μl substrate to a final concentration of 60 nM cAMP and […] ^3H-cAMP. The reaction was incubated for 60 minutes at room temperature. After incubation, the reaction was stopped with 20 μl of stop solution consisting of 17.8 mg/ml PDE SPA (scintillation proximity assay) beads. After sedimentation of the beads during 30 minutes the radioactivity was measured in a Perkin Elmer Topcount scintillation counter and results were expressed as cpm. For blanc values the enzyme was omitted from the reaction and replaced by incubation buffer. Control values were obtained by addition of a final concentration of 1% DMSO instead of compound. A best fit curve is fitted by a minimum sum of squares method to the plot of % of control value substracted with blanc value versus compound concentration and the half maximal inhibitory concentration (IC50) value is derived from this curve.

rPDE10A2 = target: T3, rPDE10A2 (Rattus norvegicus, UniProt Q9QYJ6); assay: In vitro assay PDE10A, rat clone (SPA, 3H-cAMP); assay type: biochemical; settings: for IC50: rat clone (r), 60 nM cAMP substrate, read-out: hPDE10A2 or rPDE10A2 pIC50 (converted); for Emax: read-out: hPDE10A2 or rPDE10A2 Emax
T3 construct: made in house; host or cells: Sf9 insect cells (baculovirus)
T3 sequence (Q9QYJ6 1-794): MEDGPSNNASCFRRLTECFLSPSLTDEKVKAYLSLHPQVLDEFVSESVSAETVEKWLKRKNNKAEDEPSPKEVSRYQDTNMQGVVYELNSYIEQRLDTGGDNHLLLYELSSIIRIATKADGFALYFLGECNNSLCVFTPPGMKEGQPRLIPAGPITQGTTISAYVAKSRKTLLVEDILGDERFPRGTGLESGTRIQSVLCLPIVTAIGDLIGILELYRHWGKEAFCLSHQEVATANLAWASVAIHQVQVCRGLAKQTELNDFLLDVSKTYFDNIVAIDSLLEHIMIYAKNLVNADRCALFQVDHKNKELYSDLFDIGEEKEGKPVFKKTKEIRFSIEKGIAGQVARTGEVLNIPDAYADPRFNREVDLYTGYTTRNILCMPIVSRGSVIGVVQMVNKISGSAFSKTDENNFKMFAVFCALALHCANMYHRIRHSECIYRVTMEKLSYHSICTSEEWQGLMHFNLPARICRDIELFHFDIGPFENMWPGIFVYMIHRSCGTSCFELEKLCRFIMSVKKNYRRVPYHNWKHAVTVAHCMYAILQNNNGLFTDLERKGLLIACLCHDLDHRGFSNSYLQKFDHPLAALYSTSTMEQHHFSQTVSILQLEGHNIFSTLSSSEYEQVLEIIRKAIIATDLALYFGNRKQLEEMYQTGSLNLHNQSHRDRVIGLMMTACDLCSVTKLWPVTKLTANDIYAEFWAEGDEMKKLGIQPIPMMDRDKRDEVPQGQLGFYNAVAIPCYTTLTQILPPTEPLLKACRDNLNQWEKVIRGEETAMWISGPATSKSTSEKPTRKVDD
Description: as §1

[2] = hPDE2A pIC50, 10 μM cGMP substrate
[3] = male Wistar rats, 10 mg/kg SC (subcutaneous), striatum, percentage occupancy

T1 sequence (O00408 whole entry): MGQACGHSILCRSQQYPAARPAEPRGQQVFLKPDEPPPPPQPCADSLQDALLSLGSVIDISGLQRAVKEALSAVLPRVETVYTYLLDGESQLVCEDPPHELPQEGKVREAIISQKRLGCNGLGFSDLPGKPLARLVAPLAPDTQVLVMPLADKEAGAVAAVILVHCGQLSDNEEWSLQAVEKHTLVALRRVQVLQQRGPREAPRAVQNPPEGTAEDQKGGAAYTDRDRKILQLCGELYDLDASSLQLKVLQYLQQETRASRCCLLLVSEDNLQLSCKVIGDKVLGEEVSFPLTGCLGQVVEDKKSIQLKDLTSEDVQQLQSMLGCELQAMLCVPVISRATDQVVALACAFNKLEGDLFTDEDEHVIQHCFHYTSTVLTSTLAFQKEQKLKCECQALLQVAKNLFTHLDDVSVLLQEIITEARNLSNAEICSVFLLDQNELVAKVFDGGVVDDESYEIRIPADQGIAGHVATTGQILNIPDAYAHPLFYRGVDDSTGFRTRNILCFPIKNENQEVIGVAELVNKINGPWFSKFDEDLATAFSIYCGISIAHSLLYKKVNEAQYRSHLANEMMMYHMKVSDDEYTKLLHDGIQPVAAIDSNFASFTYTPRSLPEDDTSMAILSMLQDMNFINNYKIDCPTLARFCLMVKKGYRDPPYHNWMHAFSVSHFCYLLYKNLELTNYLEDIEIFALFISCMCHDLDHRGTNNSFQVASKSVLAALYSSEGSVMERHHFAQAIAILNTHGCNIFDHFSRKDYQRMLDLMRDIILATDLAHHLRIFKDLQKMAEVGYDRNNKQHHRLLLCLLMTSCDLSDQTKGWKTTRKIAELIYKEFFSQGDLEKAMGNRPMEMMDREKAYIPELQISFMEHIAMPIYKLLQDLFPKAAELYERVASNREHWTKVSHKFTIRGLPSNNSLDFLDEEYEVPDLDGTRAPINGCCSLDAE

SMILES | Emax ([1]; 10 μM cGMP substrate) | IC50 ([1]; 10 μM cGMP substrate, read-out: hPDE2A pIC50 (converted)) | hPDE3B pIC50 (hPDE3B) | hPDE3B Emax (hPDE3B) | receptor occupancy at 10 mg/kg (PDE2A; po) | IC50 (hPDE10A2; human clone) | Emax (hPDE10A2) | hPDE2A Emax ([1]; 10 μM cGMP substrate) | IC50 [1, 2] | receptor occupancy at 10 mg/kg (PDE2A; [3]) | hPDE10A2 or rPDE10A2 Emax (hPDE10A2; human clone) | IC50 [1] | IC50 (rPDE10A2) | Emax (rPDE10A2)
Cc1cc([C@@H](C)N2CC[C@@H](C)[C@H](c3cc(C(F)F)nc4ncnn34)C2)cc(C2CC2)n1 (relative stereo) [Compound 3] | 100% | 13.5 nM | <5 | 19 | 21% | 1260 nM | 91% | – | – | – | – | – | – | –
Cc1cc(C(C)N2CC[C@@H](C)[C@H](c3cc(C(F)F)nc4ncnn34)C2)cc(C)n1 (single isomer, unassigned) [Compound 1b, 5-(difluoromethyl)-7-[(3 S,4R)-1-[(1S*)-1-(2,6-dimethyl-4-pyridyl)ethyl]-4-methyl-3-piperidyl]-[1,2,4]triazolo[1,5-a]pyrimidine] | – | – | <5 | 19 | – | 2880 nM | – | 100 | 11.7 nM | 42% | 80 | – | – | –
C[C@@H]1CCN(Cc2cc3ccccc3cn2)C[C@H]1c1cc(C(F)F)nc2ncnn12 [Compound 8] | 100% | – | 5.09 | 61 | – | 1480 nM | 85% | – | 8.51 nM | 0% | – | – | – | –
Cc1cc(CN2CCCC(C)(c3cc(C(F)F)nc4ncnn34)C2)cc(Cl)n1 (centres unmarked) [Compound 28] | 16% | – | <5 | 10 | – | – | – | – | – | – | – | 5620 nM | > 10000 nM | 7.2%
Cc1cc(CN2CC[C@@H](C)[C@H](c3cc(C(F)F)nc4ncnn34)C2)cc(C)n1.Cl [Compound 33] | 96% | – | <5 | 8 | – | 4070 nM | 72% | – | – | 37% | – | 22.4 nM | – | –
C[C@@H]1CCN(Cc2ccc3nccn3c2)C[C@H]1c1cc(C(F)F)nc2ncnn12 [Compound 34] | 91% | – | <5 | 18 | 0% | 4680 nM | 67% | – | – | – | – | 22.9 nM | – | –
Cc1cc(CN2CC[C@@H](C)[C@H](c3cc(C(F)F)nc4ncnn34)C2)cc(C)c1Cl.Cl [Compound 36] | 100% | – | – | 43 | 0% | 3720 nM | 82% | – | – | – | – | 56.2 nM | – | –
FC(F)c1cc(C2CCCN(Cc3cc4ccccc4o3)C2)n2ncnc2n1 (centres unmarked) [Compound 37] | 81% | – | 5.92 | 88 | – | – | – | – | 200 nM | – | – | – | 1050 nM | 50.7%
Cl.FC(F)Oc1cccc(CN2[C@H]3CC[C@H](c4cc(C(F)F)nc5ncnn45)[C@@H]2CC3)c1 [Compound 56] | 97% | – | <5 | 26 | – | > 10000 nM | 43% | – | – | – | – | 525 nM | – | –
Cl.FC(F)c1cc([C@H]2CC[C@H]3CC[C@@H]2N3Cc2ccc(Cl)c(Cl)c2)n2ncnc2n1 [Compound 57] | 100% | – | <5 | 35 | – | 7940 nM | 58% | – | – | – | – | 105 nM | – | –
